Assay: isobaric coefficient of expansion
Settings: Liquid, DSC

CCCCCCCCCCCCCC [tetradecane]
isobaric coefficient of expansion
Settings	298.15 K	308.15 K	318.15 K	328.15 K	338.15 K	348.15 K
5000 kPa	0.000909 1/K	0.000913 1/K	0.000918 1/K	0.000922 1/K	0.000931 1/K	0.000941 1/K
10000 kPa	0.000881 1/K	0.000884 1/K	0.00089 1/K	0.00089 1/K	0.000897 1/K	0.0009 1/K
15000 kPa	0.00086 1/K	0.000861 1/K	0.000863 1/K	0.000859 1/K	0.000863 1/K	0.000867 1/K
20000 kPa	0.000837 1/K	0.000836 1/K	0.000837 1/K	0.000833 1/K	0.000835 1/K	0.000839 1/K
25000 kPa	0.000815 1/K	0.000814 1/K	0.000815 1/K	0.00081 1/K	0.00081 1/K	0.000812 1/K
30000 kPa	0.000798 1/K	0.000793 1/K	0.000791 1/K	0.000789 1/K	0.000789 1/K	0.000789 1/K
35000 kPa	0.00078 1/K	0.000777 1/K	0.000774 1/K	0.00077 1/K	0.000768 1/K	0.000768 1/K
40000 kPa	0.000764 1/K	0.000761 1/K	0.000756 1/K	0.000753 1/K	0.000749 1/K	0.000747 1/K
45000 kPa	0.00075 1/K	0.000742 1/K	0.000738 1/K	0.000735 1/K	0.000732 1/K	0.000726 1/K
50000 kPa	0.000737 1/K	0.00073 1/K	0.000722 1/K	0.00072 1/K	0.000718 1/K	0.000711 1/K
55000 kPa	0.000725 1/K	0.000719 1/K	0.000714 1/K	0.000709 1/K	0.000705 1/K	0.000699 1/K
